Data from patent US20240252529A1, “ANTIVIRAL PHARMACEUTICAL COMPOSITION” (MARINOMED BIOTECH AG, priority 2020, published 2024).

Test system: SARS-CoV-2 spike glycoprotein pseudotyped lentivirus
Assay type: cell-based
Conditions: comparative polymers at 100 μg/ml; FIG. 3

## O=C[C@H](O)[C@@H](O)[C@@H](OS(=O)(=O)O)[C@H](O)CO [Gal-4-SO4, galactose-4-sulphate]
  protection of target cells against infection: only poorly effective
